Tests used:
[1] = Inhibition of bovine aortic PDE4 using cAMP as substrate in presence of cGMP; design: species or system Bos taurus
Bos taurus [2] = organism: Bos taurus; assay: Inhibition of bovine aortic PDE3 using cAMP as substrate at 10 uM in presence of rolipram
[3] = target: cGMP-specific 3',5'-cyclic phosphodiesterase (Bos taurus) (UniProt Q28156); assay: Inhibition of bovine aortic PDE5 using cGMP as substrate at 10 uM in presence of EGTA
Bos taurus [4] = organism: Bos taurus; assay: Inhibition of bovine aortic PDE1 using calmodulin activated cGMP as substrate at 10 uM
Endothelial cell = assay: Inhibition of bovine aortic endothelial cells PDE2 using cAMP as substrate at 10 uM in presence of cGMP; type: cell-based; settings: Bos taurus
[5] = Inhibition of bovine aortic endothelial cells PDE2 using cAMP as substrate in presence of cGMP; type: cell-based, Bos taurus; settings: endothelial cell
[6] = Inhibition of bovine aortic PDE3 using cAMP as substrate in presence of rolipram; design: species or system Bos taurus
[7] = Competitive inhibition of bovine aortic PDE4 using cAMP as substrate by Lineweaver-Burk plot analysis; design: species or system Bos taurus
Bos taurus [8] = organism: Bos taurus; assay: Ratio of tofisopam IC50 to compound IC50 for bovine aortic PDE4 using cAMP as substrate in presence of cGMP
[9] = target: cGMP-specific 3',5'-cyclic phosphodiesterase (Bos taurus, UniProt Q28156); assay: Inhibition of bovine aortic PDE5 using cGMP as substrate in presence of EGTA
Bos taurus [10] = organism: Bos taurus
Description: Activity of bovine aortic PDE4

Structure (SMILES)	IC50 [1]	other results
CCOc1ccc(C(=O)c2ccc(Cl)cc2)cc1OCC	> 20000 nM	
COc1cc2c(cc1OC)C(c1ccc(Cl)cc1)=NNC(=O)C2	1500 nM	
CCOc1ccc(C(=O)N2CCCCC2)cc1OCC	3600 nM	
CCOc1cc2c(cc1OCC)C(c1cccc(Cl)c1)=NNC(=O)C2	1400 nM	
COc1cc2c(cc1OC)C(c1ccc(Cl)c(Cl)c1)=NNC(=O)C2	300 nM	
CCOc1ccc(C2=NNC(=O)Cc3ccccc32)cc1OCC	190 nM	inhibition (Bos taurus [2]): 12%; inhibition [3]: 17%; inhibition (Bos taurus [4]): 3%; inhibition (Endothelial cell): 27%
CCOc1cc2c(cc1OCC)C(c1ccccc1)=NNC(=O)C2	800 nM	inhibition (Bos taurus [2]): 30%; inhibition [3]: 30%; inhibition (Bos taurus [4]): 37%; inhibition (Endothelial cell): 5%
COc1cc2c(cc1OC)N(C)C(=O)CN=C2N1CCCCC1	> 20000 nM	
CCOc1cc2c(cc1OCC)N(C)C(=O)CN=C2c1ccccc1	860 nM	
COc1ccc(C(=O)N2CCCCC2)cc1OC	9600 nM	
CCC1C(C)=NN=C(c2ccc(OC)c(OC)c2)c2cc(OC)c(OC)cc21 (stereo not drawn) [TOFISOPAM]	680 nM	IC50 [5]: 900 nM; IC50 [6]: 5900 nM
COc1cc2c(cc1OC)N(C)C(=O)CN=C2c1ccc(Cl)cc1	> 20000 nM	
CCOc1ccc(C(=O)c2ccc(N(C)Cc3ccccc3)cc2)cc1OCC	2200 nM	
CCOc1ccc(C2=NN(C)C(=O)Cc3ccccc32)cc1OCC	140 nM	Ki [7]: 66 nM
COc1cc2c(cc1OC)N(C)C(=O)CN=C2c1cc2ccccc2s1	2300 nM	
COc1cc2c(cc1OC)C(c1cccc(Cl)c1)=NNC(=O)C2	7700 nM	
CCOc1ccc(C(=O)c2ccc3ccccc3c2)cc1OCC	5000 nM	
COc1cc2c(cc1OC)C(c1cc3ccccc3s1)=NNC(=O)C2	1200 nM	
CCOc1ccc(Cc2nccc3cc(OCC)c(OCC)cc23)cc1OCC [ETHAVERINE]	400 nM	
COc1cc2c(cc1OC)C(c1cc3ccccc3s1)=NN(C)C(=O)C2	300 nM	
COc1cc2c(cc1OC)C(c1ccccc1)=NNC(=O)C2	7700 nM	
CCOc1ccc(C(=O)c2ccc(Cl)c(Cl)c2)cc1OCC	7900 nM	

Structure (SMILES)	IC50 [1]	other results
CCOc1ccc(C(=O)c2ccccc2)cc1OCC	2900 nM	
COc1cc2c(cc1OC)C(c1ccccc1)=NCC(=O)N2	> 20000 nM	
CCOc1cc2c(cc1OCC)C(c1cc3ccccc3s1)=NN(C)C(=O)C2	87 nM	Ratio IC50 (Bos taurus [8]): 7
CCOc1cc2c(cc1OCC)C(c1ccccc1)=NCC(=O)N2	950 nM	
COc1cc2c(cc1OC)C(c1ccc3ccccc3c1)=NNC(=O)C2	1500 nM	
CCOc1cc2c(cc1OCC)C(c1ccc(Cl)cc1)=NNC(=O)C2	800 nM	
COc1cc2c(cc1OC)N(C)C(=O)CN=C2c1cccc(Cl)c1	> 20000 nM	
COc1cc2c(cc1OC)N(C)C(=O)CN=C2c1ccccc1	18000 nM	
CCOc1cc2c(cc1OCC)C(c1cc3ccccc3s1)=NNC(=O)C2	260 nM	
CCOc1ccc(C(=O)c2ccccc2Cl)cc1OCC	1400 nM	inhibition (Bos taurus [2]): 24%; inhibition [3]: 4%; inhibition (Bos taurus [4]): 21%; inhibition (Endothelial cell): 46%; Ki [7]: 420 nM
COc1cc2c(cc1OC)C(c1cccc(Cl)c1)=NN=C(C)C2 [GIRISOPAM]	3200 nM	IC50 [5]: 4000 nM; IC50 [9]: 12500 nM; inhibition (Bos taurus [2]): 22%
COc1cc2c(cc1OC)N(C)C(=O)CN=C2C#Cc1ccccc1	1600 nM	
Nc1ncnc2c1ncn2[C@@H]1O[C@@H]2COP(=O)(O)O[C@H]2[C@H]1O		Km (Bos taurus [10]): 0.71 µM
CCOc1ccc(C(=O)N2CCN(c3ccccc3)CC2)cc1OCC	17000 nM	
COc1ccc(Cc2nccc3cc(OC)c(OC)cc23)cc1OC [PAPAVERINE]	1100 nM	
COc1cc2c(cc1OC)C(c1ccccc1)=NN(C)C(=O)C2	5100 nM	
CCOc1ccc(C(=O)N2CCN(Cc3ccccc3)CC2)cc1OCC	2300 nM	
CCOc1cc2c(cc1OCC)C(CC)C(C)=NN=C2c1cccc(Cl)c1 (stereo not drawn)	390 nM	inhibition (Endothelial cell): 44%
CCOc1cc2c(cc1OCC)C(CC)C(C)=NN=C2c1ccc(Cl)cc1 (stereo not drawn)	200 nM	inhibition (Bos taurus [2]): 4%; inhibition [3]: 39%; inhibition (Endothelial cell): 38%
COc1cc2c(cc1OC)N(C)C(=O)CN=C2/C=C/c1ccccc1	8400 nM	
CCOc1ccc(C(=O)c2cccc3ccccc23)cc1OCC	4300 nM	
COc1cc2c(cc1OC)N(C)C(=O)CN=C2CCc1ccccc1	> 20000 nM	

From ChEMBL document CHEMBL1914375, “New PDE4 inhibitors based on pharmacophoric similarity between papaverine and tofisopam” (Bioorg Med Chem Lett, 2011)
